Assay [1] concerns HCT116. Kind of assay: efficacy (fitted maximal change in viability relative to DMSO control); higher = less cytotoxic (negative = loss of viability). The settings on record: 48 h.
Assay [2] deals with HCT116. The experiment in a line: AC50 cell viability (CellTiter-Glo); higher = less potent. The settings on record: 48 h.

SMILES strings stand for the structures. Where a name gives a salt, the structure may show the parent alone.
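For AC50 cell viability (CellTiter-Glo) in this document: HCT116 colorectal carcinoma cells screened at five concentrations per compound, luminescent viability scaled between DMSO wells and empty wells on each plate, curves fitted per compound.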
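For efficacy (fitted maximal change in viability relative to DMSO control) in this document: Luminescence-based viability readout, five doses per compound, normalized against on-plate DMSO and empty-well controls, followed by dose-response curve fitting for every drug.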

For `CNC1CCC(N(Cc2cccc(-c3ccncc3)c2)C(=O)c2sc3c(F)ccc(F)c3c2Cl)CC1` (stereo not drawn) [Hh-Ag1.5], in the assay on HCT116 [1], the efficacy was -115%. This compound yielded an AC50 cell viability in the assay with HCT116 [2] of 13.2 µM.
Turning to `COc1cc(O)c2c(c1)C1OC1C[C@H](O)[C@H](O)C(=O)/C=C\C[C@H](C)OC2=O` (stereo partly drawn) [Hypothemycin], in the assay on HCT116 [1], the efficacy was -72%. The compound also had an AC50 cell viability with HCT116 [2] of 3.72 µM.
Regarding `COc1cc2c(cc1-c1c(C)noc1C)ncc1[nH]c(=O)n([C@H](C)c3ccccn3)c12` [I-BET151], the efficacy in the assay with HCT116 [1] is -77.4%. The compound further came in with an AC50 cell viability in the assay on HCT116 [2] of 1.32 µM.
As for `CCNC(=O)C[C@@H]1\N=C(C2=CC=C(Cl)C=C2)/C3=C(C=CC(=C3)OC)[N]4C(=NN=C14)C` [I-BET762], in the assay with HCT116 [1], the efficacy is -67%. In the assay with HCT116 [2], this compound gave an AC50 cell viability of 2.63 µM.
On the same counts, the results for `O=C1[C@H](Cc2ccc(O)cc2)N2C(=O)CCN(C(=O)NCc3ccccc3)[C@H]2CN1Cc1cccc2ccccc12` [ICG-001] are -67.2% and 2.09 µM.
On the same counts, the results for `N#Cc1c(C2CCNCC2)cc(-c2c(O)cccc2OCC2CC2)nc1N` [IKK-2 Inhibitor VIII] are -89.2% and 10.5 µM.
For `O=C(c1ccc(Nc2nccc(-c3cc4ccccc4s3)n2)cc1)N1CCC(N2CCCC2)CC1` [IKK-16], the efficacy with HCT116 [1] is -106%. Further, the AC50 cell viability with HCT116 [2] came out at 6.61 µM.
On the same counts, the results for `O=C(Nc1cc(C(F)(F)F)cc(C(F)(F)F)c1)c1cc(Cl)ccc1O` [IMD-0354] are -88.7% and 0.833 µM.
With `CC(C)n1nc(-c2ccc3oc(N)nc3c2)c2c(N)ncnc21` [INK-128], in the assay with HCT116 [1], the efficacy is -100%. Besides, the AC50 cell viability in the assay with HCT116 [2] was 0.372 µM.
Take `Nc1ccc(C(=O)c2cc3c(ccc4ccccc43)[nH]2)cc1` [IPFK2]: the efficacy with HCT116 [1] is -102%. The same compound registered an AC50 cell viability in the assay with HCT116 [2] of 4.81 µM.
Take `CC(NC1=NC=NC2=C1[NH]C=N2)\C3=C\C4=C(C(=CC=C4)Cl)C(=O)N3C5=CC=CC=C5` (stereo not drawn) [IPI-145]: the efficacy in the assay on HCT116 [1] is -58.5%. In addition, the AC50 cell viability with HCT116 [2] was 14.8 µM.
Regarding `C[C@H](NC(=O)C1=C2N=CC=C[N]2N=C1N)\C3=C\C4=CC=CC(=C4C(=O)N3C5=CC=CC=C5)C#CC6=C[N](C)N=C6` [IPI-549], the efficacy in the assay on HCT116 [1] was -43.1%. Further, the AC50 cell viability in the assay on HCT116 [2] is 8.11 µM.
With `O=C(Nc1nc2ccccc2n1CCN1CCOCC1)c1cccc([N+](=O)[O-])c1` [IRAK-1-4 Inhibitor I], in the assay with HCT116 [1], the efficacy is -64.8%. The compound further gave an AC50 cell viability in the assay on HCT116 [2] of 14.8 µM.
As for `CC(C)(C)OC(=O)Nc1ccc(-c2cc(C(=O)NCCCCCCC(=O)NO)no2)cc1` [ISOX], the efficacy in the assay with HCT116 [1] is -91.5%. The compound further registered an AC50 cell viability in the assay on HCT116 [2] of 1.86 µM.
Consider `CCOC(=O)\C1=C(/C)N\C2=C(C1C3=CC=C(C=C3)C4=CC=CC=C4)\C(=O)CC(C)(C)C2` (stereo not drawn) [ITD-1], for which the efficacy in the assay with HCT116 [1] was -67.8%. The AC50 cell viability in the assay with HCT116 [2] was determined as 18.6 µM.
On the same counts, the results for `COc1cc(C)c(Sc2cnc(NC(=O)c3ccc(CNC(C)C(C)C)cc3)s2)cc1C(=O)N1CCN(C(C)=O)CC1` (stereo not drawn) [ITK Inhibitor] are -132% and 14.8 µM.
On the same counts, the results for `COc1ccc([S+](=O)([O-])N(C(C)=O)c2ccccc2/C=C/c2cc[n+]([O-])cc2)cc1` [IVX-214] are -59.1% and 4.17 µM.
`CC(C)(NC(=O)O[C@@H]1CN2CCC1CC2)c1csc(-c2ccc(F)cc2)n1` [Ibiglustat]: the efficacy in the assay on HCT116 [1] was -43.3%. The compound further gave an AC50 cell viability in the assay on HCT116 [2] of 18.6 µM.
On the same counts, the results for `CC(=O)[C@]1(O)Cc2c(O)c3c(c(O)c2[C@@H](O[C@H]2C[C@H](N)[C@H](O)[C@H](C)O2)C1)C(=O)c1ccccc1C3=O` [Idarubicin hydrochloride] are -83% and 0.661 µM.
With `COc1cc(C(=O)O)ccc1NC(=O)[C@@H]1N[C@@H](CC(C)(C)C)[C@](C#N)(c2ccc(Cl)cc2F)[C@H]1c1cccc(Cl)c1F` [Idasanutlin], the efficacy in the assay on HCT116 [1] was -67.9%. The compound further returned an AC50 cell viability with HCT116 [2] of 1.66 µM.
For `COC\1=C(/OC)C(=O)\C(=C(C)/C1=O)CCCCCCCCCCO` [Idebenone], in the assay with HCT116 [1], the efficacy was -54.9%. In addition, the AC50 cell viability with HCT116 [2] was found to be 18.6 µM.
On the same counts, the results for `OC[C@H]1O[C@H](C[C@@H]1O)N2\C=C(\I)C(=O)NC2=O` [Idoxuridine] are -38.3% and 16.6 µM.
Consider `OC1=CC=C(C=C1)C/2=C/C3=C(OC2)C=C(O)C=C3` [Idronoxil], for which, in the assay with HCT116 [1], the efficacy is -73.9%. Besides, the AC50 cell viability with HCT116 [2] turned out to be 3.72 µM.
On the same counts, the results for `Cc1ccc(NC(=O)c2ccc(CN3CCN(C)CC3)cc2)cc1Nc1nccc(-c2cccnc2)n1` [Imatinib] are -85% and 16.6 µM.
On the same counts, the results for `NC(=O)C/1=C(O)/[C@]2(O)[C@@H](C[C@@H]\3CC4=C(C(=CC=C4)O)\C(=C3C2=O)O)CC1=O` [Incyclinide] are -69.4% and 16.6 µM.
On the same counts, the results for `O=C(Nc1ccncc1)C(=O)c1cn(Cc2ccc(Cl)cc2)c2ccccc12` [Indibulin] are -70.9% and 0.295 µM.
In the case of `COC1=C(OC)C=C2C(=C1)C(=O)N(CCC[N]3C=CN=C3)\C4=C2\C(=O)C5=CC6=C(OCO6)C=C45` [Indimitecan hydrochloride (LMP-776)], the efficacy with HCT116 [1] was -63.4%. The compound also registered an AC50 cell viability with HCT116 [2] of 5.9 µM.
On the same counts, the results for `N[S+](=O)([O-])c1ccc([S+](=O)([O-])Nc2cccc3c(Cl)c[nH]c23)cc1` [Indisulam (E7070)] are -57.8% and 1.86 µM.
On the same counts, the results for `COC1=C(OC)C=C2C(=C1)C(=O)N(CCCN3CCOCC3)\C4=C2\C(=O)C5=C4C=C6OCOC6=C5` [Indotecan hydrochloride (LMP-400)] are -88.1% and 2.09 µM.
For the compound `CC(C)NC[C@@H](C(=O)N1CCN(c2ncnc3c2[C@H](C)C[C@H]3O)CC1)c1ccc(Cl)cc1` [Ipatasertib], the efficacy with HCT116 [1] is -96.8%. Also, the AC50 cell viability in the assay with HCT116 [2] was 13.2 µM.
On the same counts, the results for `CCC1=C2C=C(OC(=O)N3CCC(CC3)N4CCCCC4)C=CC2=NC\5=C1CN6C(=O)\C7=C(/C=C56)[C@@](O)(CC)C(=O)OC7` [Irinotecan] are -80% and 1.18 µM.
Regarding `Clc1ccc(C(Cn2ccnc2)OCc2c(Cl)cccc2Cl)c(Cl)c1` (stereo not drawn) [Isoconazole nitrate], the efficacy in the assay with HCT116 [1] is -77.2%. Further, the AC50 cell viability in the assay on HCT116 [2] worked out at 23.5 µM.
On the same counts, the results for `CC(C)[C@@H](N(CCCN)C(=O)C1=CC=C(C)C=C1)C/2=N/C3=CC(=CC=C3C(=O)N2CC4=CC=CC=C4)Cl` [Ispinesib] are -94.4% and 0.0295 µM.
On to `CC(C)(C)C1=CC(=C(NC(=O)C/2=C/NC3=C(C=CC=C3)C2=O)C=C1O)C(C)(C)C` [Ivacaftor], for which the efficacy with HCT116 [1] is -108%. In addition, in the assay with HCT116 [2], the AC50 cell viability stood at 18.6 µM.
On the same counts, the results for `C/C(=C\c1csc(C)n1)[C@@H]1C[C@@H]2O[C@]2(C)CCC[C@H](C)[C@H](O)[C@@H](C)C(=O)C(C)(C)[C@@H](O)CC(=O)N1` [Ixabepilone] are -58.5% and 0.0833 µM.
Take `CC(C)C[C@H](NC(=O)CNC(=O)c1cc(Cl)ccc1Cl)B1OC(=O)CC(CC(=O)O)(C(=O)O)O1` (stereo partly drawn) [Ixazomib citrate]: the efficacy in the assay on HCT116 [1] was -93.4%. In the assay with HCT116 [2], this compound returned an AC50 cell viability of 0.148 µM.
Regarding `CC(C)C[C@H](NC(=O)CNC(=O)c1cc(Cl)ccc1Cl)B(O)O` [Ixazomib], the efficacy with HCT116 [1] is -89.3%. For the same compound, the AC50 cell viability in the assay with HCT116 [2] was found to be 0.0833 µM.
On the same counts, the results for `N#CC(c1ccnc(NCCc2cccnc2)n1)c1nc2ccccc2s1` (stereo not drawn) [JNK Inhibitor V] are -92.2% and 8.33 µM.
On the same counts, the results for `CC1=C(C)C2=C(S1)[N]3C(=NN=C3[C@H](CC(=O)OC(C)(C)C)/N=C2/C4=CC=C(Cl)C=C4)C` [JQ1] are -81.9% and 0.525 µM.
`CCc1ccc(OCc2ccccc2C(=O)Nc2ccc3nc(C)cc(N)c3c2)cc1` [JTC-801]: the efficacy in the assay on HCT116 [1] is -94.1%. For the same compound, the AC50 cell viability in the assay with HCT116 [2] turned out to be 3.32 µM.
On the same counts, the results for `CC(C)NC(=O)COc1cccc(-c2nc(Nc3ccc4[nH]ncc4c3)c3ccccc3n2)c1` [KD-025] are -66.8% and 8.33 µM.
As to `CC(C)CNc1ccnc(NCc2csc(-c3ccccc3)n2)n1` [KHS-101], in the assay with HCT116 [1], the efficacy is -129%. The compound further came in with an AC50 cell viability with HCT116 [2] of 11.8 µM.
Regarding `COc1cc2nccc(Oc3ccc(NC(=O)Nc4ccc(F)cc4F)c(F)c3)c2cc1OC` [KI-8751], in the assay with HCT116 [1], the efficacy was -47.4%. Also, the AC50 cell viability in the assay with HCT116 [2] came to 2.09 µM.
As to `COc1ccc([S+](=O)([O-])N(CCO)c2ccccc2CN(C)C/C=C/c2ccc(Cl)cc2)cc1` [KN-93], in the assay with HCT116 [1], the efficacy is -93.9%. This compound also had an AC50 cell viability in the assay on HCT116 [2] of 14.8 µM.
On the same counts, the results for `O=C(/C=C\n1cnc(-c2cc(C(F)(F)F)cc(C(F)(F)F)c2)n1)N1CC(F)(F)C1` [KPT-276] are -75.6% and 0.59 µM.
With `Nc1ccc(/C=C/C(=O)NCc2cc3cc(-c4ccc(C(=O)N5CCC(F)(F)CC5)cc4)cc(-c4ccc(F)cc4)c3o2)cn1` [KPT-9274], the efficacy in the assay with HCT116 [1] is -91.7%. Besides, the AC50 cell viability with HCT116 [2] came to 0.59 µM.
On the same counts, the results for `NC(CO)(CO)CCc1ccc(Sc2cccc(OCc3ccccc3)c2)cc1Cl` [KRP-203] are -92.6% and 7.42 µM.
On the same counts, the results for `O=C/1\C=C(/OC(=C1)/C2=C3SC4=C(SC3=CC=C2)C=CC=C4)N5CCOCC5` [KU-0064] are -77.5% and 16.6 µM.
On the same counts, the results for `O=C(c1ccc(/C=C/c2n[nH]c3ccccc23)cc1)N1CCNCC1` [KW-2449] are -96.6% and 8.33 µM.
